Laboratory results taken from PubChem BioAssay (NCI).
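Compound exposure: 48 hours, 5 concentrations, 96-well plates. At the TGI there is no net growth.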

Key:
Assay in all cases: DTP human tumour cell line panel, 48 h
OVCAR-3 ovarian = test system: OVCAR-3 ovarian
SF-268 CNS = test system: SF-268 CNS
PC-3 prostate = test system: PC-3 prostate
HCC-2998 colon = test system: HCC-2998 colon
HS 578T breast = test system: HS 578T breast
NCI-H460 lung = test system: NCI-H460 lung
COLO 205 colon = test system: COLO 205 colon
K-562 leukemia = test system: K-562 leukemia
M14 melanoma = test system: M14 melanoma
MDA-MB-231 breast = test system: MDA-MB-231 breast

| SMILES | TGI (OVCAR-3 ovarian) | TGI (SF-268 CNS) | TGI (PC-3 prostate) | TGI (HCC-2998 colon) | TGI (HS 578T breast) | TGI (NCI-H460 lung) | TGI (COLO 205 colon) | TGI (K-562 leukemia) | TGI (M14 melanoma) | TGI (MDA-MB-231 breast) |
| --- | --- | --- | --- | --- | --- | --- | --- | --- | --- | --- |
| O=c1[nH]nc(-c2ccc([N+](=O)[O-])cc2)[nH]1 | > 100 µM | > 100 µM | > 100 µM | > 100 µM | > 100 µM | > 100 µM | > 100 µM | > 100 µM | > 100 µM |  |
| CC1=CC(O)CC(C)(C)C1/C=C/C(C)=C/C=C/C(C)=C/C=C/C=C(C)/C=C/C=C(C)/C=C/C1=C(C)CC(O)CC1(C)C (stereo not given) | 32.8 µM |  | 62.6 µM | > 100 µM | > 100 µM | > 100 µM | 38 µM | > 100 µM | 29.8 µM | 30.1 µM |
| C=CCN(c1cc(OC)c2[nH]c(C(=O)O)c(C)c2c1[N+](=O)[O-])S(C)(=O)=O | > 100 µM | > 100 µM | > 100 µM | > 100 µM | > 100 µM | > 100 µM | > 100 µM | > 100 µM | > 100 µM | > 100 µM |
| Fc1cccc(F)c1C1SCc2nc3cc(Cl)ccc3n21 (stereo not given) | > 100 µM | > 100 µM | > 100 µM | 42.6 µM | > 73.4 µM | > 100 µM | 36.6 µM | > 100 µM | > 100 µM | > 100 µM |
| Cc1ccc2nc(Nc3ccccc3C)c(Nc3ccccc3C)nc2c1 | 52.3 µM | > 100 µM | > 100 µM | 61.3 µM | > 100 µM | 45 µM | 30.6 µM | > 57.4 µM | 81.8 µM | > 100 µM |
| COc1cc2c3cc1Oc1cc(ccc1O)C[C@@H]1c4c(cc(OC)c(O)c4Oc4ccc(cc4)C[C@@H]3[N+](C)(C)CC2)CC[N+]1(C)C | > 100 µM | > 100 µM | > 100 µM |  | 85.1 µM | > 100 µM | > 100 µM | > 100 µM | 30.4 µM | > 100 µM |
| Nc1cc2nc(-c3ccccc3)cn2cn1 | > 100 µM | > 100 µM | > 100 µM |  |  | > 100 µM | > 100 µM | > 100 µM | > 100 µM | > 100 µM |
| COC(=O)[C@@H]1[C@H]2CC[C@]3(C)[C@@H](OC(C)=O)CC[C@H]3[C@@H]2CC[C@H]1C1(C)SCCS1 | 88.5 µM | > 100 µM | 86 µM | 86.2 µM | 74.4 µM | 97.8 µM | 29.3 µM | 94 µM | 44 µM | 62.1 µM |
| O=c1cccc2n1CC1CNCC2C1 (stereo not given) | > 100 µM | > 100 µM | > 100 µM | > 100 µM | > 100 µM | > 100 µM | > 100 µM | > 100 µM | > 100 µM | > 100 µM |
| CCCCCc1cc(CCCC)sc1-c1ccco1 | > 100 µM | > 100 µM | > 100 µM | > 100 µM | > 100 µM | > 100 µM | > 100 µM | > 100 µM | > 100 µM | > 100 µM |
| CC(=O)N=S(NC(=O)c1ccc(C)cc1)C(Cl)(Cl)Cl (stereo not given) | 52 µM | > 100 µM | > 100 µM | 30.5 µM | > 100 µM | > 100 µM | 45.3 µM | > 100 µM | 31.8 µM | 68 µM |
| CCOP(=O)(CC1OC(CO)C(O)C1O)OCC (stereo not given) | > 100 µM | > 100 µM | > 100 µM | > 100 µM | > 100 µM | > 100 µM | > 100 µM | > 100 µM | > 100 µM | > 100 µM |
| CC(Br)CN(CC(C)Br)c1ccc2c(c1)Cc1ccccc1-2 (stereo not given) | 24 µM | 23.3 µM | 22.7 µM |  | 41.7 µM | 9.23 µM | 27.5 µM | 33.2 µM | 24.3 µM | 26.8 µM |
| CCc1nc2c([nH]1)C(=O)c1ccccc1C2=O | 61.7 µM | > 100 µM |  | > 100 µM |  | > 100 µM |  | > 100 µM | > 100 µM |  |
| CC1OC2OC3C(OCC(O)C3O)OC(=O)[C@]34CCC(C)(C)CC3C3=CCC5[C@@]6(C)C[C@H](O)[C@H](OC7OC(CO)C(O)C(O)C7OC7OC(COC(=O)CC(C)(O)CC(=O)OC1C(OC1OC(CO)C(O)C(O)C1O)C2O)C(O)C(O)C7O)[C@@](C)(CO)C6CC[C@@]5(C)[C@]3(C)CC4 (stereo not given in full) | 15.2 µM | 10.5 µM | 6.85 µM | 2.65 µM | 18.6 µM | 19.8 µM | 4.52 µM |  | 8.44 µM | 16.4 µM |
| Cc1cccc2c(N)c3cccc(C(=O)NCC[N+](C)(C)[O-])c3nc12 | > 100 µM | > 100 µM | 60.4 µM | 24.5 µM | 38.9 µM | 10.2 µM | 40.4 µM | > 100 µM | 55 µM | 75.1 µM |
| O/N=C/[C@H]1COC2(CCCCC2)O1 | > 100 µM | > 100 µM | > 100 µM |  | > 100 µM |  | > 100 µM | > 100 µM | > 100 µM | > 100 µM |
| C/C(=C\CO)CC[C@@H]1[C@@]2(C)CCCC(C)(C)[C@@H]2CC[C@@]1(C)O | 27.6 µM | 32.4 µM | 30 µM | 29.5 µM | 56.4 µM | 31.3 µM | 32.7 µM | 34.7 µM | 53.6 µM | 31 µM |
| O=C(O[C@@H](/C=C/c1ccccc1)P1(=O)N(Cc2ccccc2)[C@@H]2CCCC[C@H]2N1Cc1ccccc1)c1ccccc1 | > 100 µM | > 100 µM | > 100 µM | > 100 µM | > 100 µM | > 100 µM | 4.55 µM | > 100 µM | > 100 µM | 9.18 µM |
| C[C@@](Br)(C(=O)O)[C@H](Br)C(=O)O | > 100 µM | > 100 µM | > 100 µM | > 100 µM |  | > 100 µM | > 100 µM | > 100 µM | > 100 µM | > 100 µM |
| CC1=NN(c2cccc(Cl)c2)C2(C1=Cc1ccc(N(C)C)cc1)C(Cl)C(=O)N2c1nc2ccccc2s1 (stereo not given) | > 100 µM | 52.4 µM | > 100 µM | 41.8 µM | > 100 µM | > 100 µM |  | > 100 µM | > 100 µM | > 100 µM |
